Assays:
Penicillium expansum = assay: Antifungal activity against Penicillium expansum IMI 960902 on TLC plate by bioautographic method; assay type: functional
Candida albicans = assay: Antifungal activity against Candida albicans IMI 349010 on TLC plate by agar overlay method; assay type: functional
[1] = test system: Human immunodeficiency virus 1; assay: Antiviral activity against HIV1 in MT4 cells assessed as reduction of HIV antigen production; assay type: functional, organism-based; conditions: Human immunodeficiency virus 1, MT4
Plasmodium falciparum = assay: Antimalarial activity against chloroquine-sensitive Plasmodium falciparum 3D7 by [3H]hypoxanthine incorporation assay; assay type: functional, organism-based

Compound	Activity (Penicillium expansum) [µg]	Activity (Candida albicans) [µg]	EC50 [1] [µM]	IC50 (Plasmodium falciparum) [µM]
Oc1ccc2c(c1)O[C@H](c1ccc3c(c1)OCO3)CC2	3	6	7	> 50
C[C@@H]1[C@H](O)[C@@H](C)/C=C/C=C/C=C/C=C/C=C/C=C/C=C/[C@H](O[C@@H]2O[C@H](C)[C@@H](O)[C@H](N)[C@@H]2O)C[C@@H]2O[C@](O)(C[C@@H](O)C[C@@H](O)[C@H](O)CC[C@@H](O)C[C@@H](O)CC(=O)O[C@H]1C)C[C@H](O)[C@H]2C(=O)O [AMPHOTERICIN B]		1		
C=C(Cc1ccc(O)cc1)C(=C)Cc1ccc(O)cc1 [ANOLIGNAN B]	5	>200	7	20.5
C=C(Cc1ccc(O)cc1)C(=C)Cc1ccc(OC)cc1O [TERMILIGNAN]	1	10	7	9.6
C=C(Cc1ccc(O)cc1)C(O)(CO)Cc1ccc(OC)cc1O (stereo not drawn) [THANNILIGNAN]	2	80	7	> 50
NYSTATIN	0.5			
